{"source": "patent EP3409761B1", "about": "“CULTURE MEDIUM COMPOSITION, AND METHOD FOR CULTURING CELL OR TISSUE USING SAID COMPOSITION” (Nissan Chemical Corporation, priority 2012, dated 2014)", "format_in_all_cases": "cell-based", "key": {"[1]": {"test_system": "human cervical cancer cell line HeLa", "assay": "Comparison with single layer culture method using agent for inducing apoptosis", "settings": "day 4", "experimental": "This aqueous solution was sterilized at 121°C for 20 min in an autoclave. […] Each plate was cultured by being stood still in a CO2 incubator (37°C, 5% CO2). […] To the culture medium on day 4 was added an ATP reagent (150 µL) (CellTiter-Glo (registered trade mark) Luminescent Cell Viability Assay, manufactured by Promega) to give a suspension, which was stood for about 10 min at room temperature, and the luminescence intensity (RLU value) was measured by FlexStation3 (manufactured by Molecular Devices), and the number of viable cells was measured by subtracting the luminescence value of the medium alone. For WST-8 measurement, a WST-8 solution (manufactured by DOJINDO Laboratories, 15 µL) was added, the mixture was incubated at 37°C for 100 min, the absorbance at 450 nm was measured by an absorbance spectrometer (manufactured by Molecular Devices, SPECTRA MAX 190), and the number of viable cells was measured by subtracting the absorbance of the medium alone."}, "[2]": {"test_system": "human cervical cancer cell line HeLa", "assay": "Cell proliferation test using various anticancer drugs", "settings": "DAG 0.030% medium; for cell density: 5 days later", "experimental": "This aqueous solution was sterilized at 121°C for 20 min in an autoclave. […] The anticancer drug used was Adriamycin (manufactured by WAKO), Paclitaxel (manufactured by WAKO) or Mitomycin C (manufactured by WAKO).\nSuccessively, this plate was cultured by being stood still in a CO2 incubator (37°C, 5% CO2) for 7 days. After culturing for 3, 5, 7 days, to the culture medium was added a WST-8 solution (manufactured by DOJINDO Laboratories, 20 µL), and the mixture was incubated at 37°C for 100 min. The absorbance at 450 nm was measured by an absorbance spectrometer (manufactured by Molecular Devices, SPECTRA MAX 190), and the number of viable cells was measured by subtracting the absorbance of the medium alone. The culture medium containing the cells after 5 days of culture was stirred with a pipette and the obtained stirred solution (20 µL) was mixed with Trypan Blue stain 0.4% (manufactured by Invitrogen, 20 µL) and the cell density was measured under a microscope."}, "[3]": {"test_system": "human cervical cancer cell line HeLa", "assay": "Comparison with single layer culture method in cell proliferation test using anticancer drug", "settings": "day 4", "experimental": "This aqueous solution was sterilized at 121°C for 20 min in an autoclave. […] Each plate was cultured by being stood still in a CO2 incubator (37°C, 5% CO2). […] The anticancer drug used was Adriamycin (manufactured by WAKO), Paclitaxel (manufactured by WAKO) or Mitomycin C (manufactured by WAKO). To the culture medium on day 4 was added an ATP reagent (150 µL) (CellTiter-Glo (registered trade mark) Luminescent Cell Viability Assay, manufactured by Promega) to give a suspension, which was stood for about 10 min at room temperature, and the luminescence intensity (RLU value) was measured by FlexStation3 (manufactured by Molecular Devices), and the number of viable cells was measured by subtracting the luminescence value of the medium alone. For WST-8 measurement, a WST-8 solution (manufactured by DOJINDO Laboratories, 15 µL) was added, the mixture was incubated at 37°C for 100 min, the absorbance at 450 nm was measured by an absorbance spectrometer (manufactured by Molecular Devices, SPECTRA MAX 190), and the number of viable cells was measured by subtracting the absorbance of the medium alone."}, "[4]": {"settings": "agent 10 µM, deacylated gellan gum addition group (0.015%)"}, "[5]": {"settings": "agent 10 µM, single layer culture group"}, "[6]": {"settings": "agent 100 µM, deacylated gellan gum addition group (0.015%)"}, "[7]": {"settings": "agent 100 µM, single layer culture group"}, "[8]": {"settings": "agent 1 µM, deacylated gellan gum addition group (0.015%)"}, "[9]": {"settings": "agent 1 µM, single layer culture group"}, "[10]": {"settings": "drug 0.005 µM, deacylated gellan gum addition group (0.015%)"}, "[11]": {"settings": "drug 0.005 µM, single layer culture group"}, "[12]": {"settings": "drug 0.05 µM, deacylated gellan gum addition group (0.015%)"}, "[13]": {"settings": "drug 0.05 µM, single layer culture group"}, "[14]": {"settings": "drug 0.5 µM, deacylated gellan gum addition group (0.015%)"}, "[15]": {"settings": "drug 0.5 µM, single layer culture group"}}}
{"smiles": "C[C@@H]1C[C@@H]([C@H](O)CC2CC(=O)NC(=O)C2)C(=O)[C@@H](C)C1", "note": "[Cycloheximide]", "values": [{"measurement": "% Control value of the RLU value (ATP measurement)", "setting": "[1]; [4]", "result": 9, "unit": "% Control"}, {"measurement": "% Control value of the absorbance at 450 nm (WST-8 measurement)", "setting": "[1]; [4]", "result": 4, "unit": "% Control"}, {"measurement": "% Control value of the RLU value (ATP measurement)", "setting": "[1]; [5]", "result": 29, "unit": "% Control"}, {"measurement": "% Control value of the absorbance at 450 nm (WST-8 measurement)", "setting": "[1]; [5]", "result": 21, "unit": "% Control"}, {"measurement": "% Control value of the RLU value (ATP measurement)", "setting": "[1]; [6]", "result": 4, "unit": "% Control"}, {"measurement": "% Control value of the absorbance at 450 nm (WST-8 measurement)", "setting": "[1]; [6]", "result": 1, "unit": "% Control"}, {"measurement": "% Control value of the RLU value (ATP measurement)", "setting": "[1]; [7]", "result": 9, "unit": "% Control"}, {"measurement": "% Control value of the absorbance at 450 nm (WST-8 measurement)", "setting": "[1]; [7]", "result": 7, "unit": "% Control"}]}
{"smiles": "C[C@@H]1C[C@H]2[C@@H]3CCC4=CC(=O)C=C[C@]4(C)[C@@]3(F)[C@@H](O)C[C@]2(C)[C@@]1(O)C(=O)CO", "note": "[Dexamethasone]", "values": [{"measurement": "% Control value of the RLU value (ATP measurement)", "setting": "[1]; [8]", "result": 232, "unit": "% Control"}, {"measurement": "% Control value of the absorbance at 450 nm (WST-8 measurement)", "setting": "[1]; [8]", "result": 184, "unit": "% Control"}, {"measurement": "% Control value of the absorbance at 450 nm (WST-8 measurement)", "setting": "[1]; [9]", "result": 89, "unit": "% Control"}, {"measurement": "% Control value of the RLU value (ATP measurement)", "setting": "[1]; [4]", "result": 241, "unit": "% Control"}, {"measurement": "% Control value of the absorbance at 450 nm (WST-8 measurement)", "setting": "[1]; [4]", "result": 173, "unit": "% Control"}, {"measurement": "% Control value of the RLU value (ATP measurement)", "setting": "[1]; [5]", "result": 116, "unit": "% Control"}, {"measurement": "% Control value of the absorbance at 450 nm (WST-8 measurement)", "setting": "[1]; [5]", "result": 92, "unit": "% Control"}]}
{"smiles": "COc1cc([C@@H]2c3cc4c(cc3[C@@H](O[C@@H]3O[C@@H]5CO[C@@H](C)O[C@H]5[C@H](O)[C@H]3O)[C@H]3COC(=O)[C@H]23)OCO4)cc(OC)c1O", "note": "[Etoposide]", "values": [{"measurement": "% Control value of the RLU value (ATP measurement)", "setting": "[1]; [8]", "result": 35, "unit": "% Control"}, {"measurement": "% Control value of the absorbance at 450 nm (WST-8 measurement)", "setting": "[1]; [8]", "result": 39, "unit": "% Control"}, {"measurement": "% Control value of the RLU value (ATP measurement)", "setting": "[1]; [9]", "result": 64, "unit": "% Control"}, {"measurement": "% Control value of the absorbance at 450 nm (WST-8 measurement)", "setting": "[1]; [9]", "result": 68, "unit": "% Control"}, {"measurement": "% Control value of the RLU value (ATP measurement)", "setting": "[1]; [4]", "result": 24, "unit": "% Control"}, {"measurement": "% Control value of the absorbance at 450 nm (WST-8 measurement)", "setting": "[1]; [4]", "result": 23, "unit": "% Control"}, {"measurement": "% Control value of the RLU value (ATP measurement)", "setting": "[1]; [5]", "result": 65, "unit": "% Control"}, {"measurement": "% Control value of the absorbance at 450 nm (WST-8 measurement)", "setting": "[1]; [5]", "result": 63, "unit": "% Control"}]}
{"smiles": "CO[C@@]12[C@H](COC(N)=O)C3=C(C(=O)C(C)=C(N)C3=O)N1C[C@@H]1N[C@@H]12", "note": "[Mitomycin C]", "values": [{"measurement": "cell density", "setting": "[2]; drug 0.01 µM", "result": "1.0 10^4 cells/mL"}, {"measurement": "cell number (absorbance at 450 nm, WST-8)", "setting": "[2]; drug 0.01 µM, day 3", "result": 0.089}, {"measurement": "cell number (absorbance at 450 nm, WST-8)", "setting": "[2]; drug 0.01 µM, day 5", "result": 0.016}, {"measurement": "cell number (absorbance at 450 nm, WST-8)", "setting": "[2]; drug 0.01 µM, day 7", "result": "< 0"}, {"measurement": "cell density", "setting": "[2]; drug 0.1 µM", "result": "0.4 10^4 cells/mL"}, {"measurement": "cell number (absorbance at 450 nm, WST-8)", "setting": "[2]; drug 0.1 µM, day 3", "result": 0.032}, {"measurement": "cell number (absorbance at 450 nm, WST-8)", "setting": "[2]; drug 0.1 µM, day 5", "result": "< 0"}, {"measurement": "cell number (absorbance at 450 nm, WST-8)", "setting": "[2]; drug 0.1 µM, day 7", "result": "< 0"}, {"measurement": "cell density", "setting": "[2]; drug 1 µM", "result": "0.1 10^4 cells/mL"}, {"measurement": "cell number (absorbance at 450 nm, WST-8)", "setting": "[2]; drug 1 µM, day 3", "result": "< 0"}, {"measurement": "cell number (absorbance at 450 nm, WST-8)", "setting": "[2]; drug 1 µM, day 5", "result": "< 0"}, {"measurement": "cell number (absorbance at 450 nm, WST-8)", "setting": "[2]; drug 1 µM, day 7", "result": "< 0"}, {"measurement": "% Control value of the RLU value (ATP measurement)", "setting": "[3]; [10]", "result": 83, "unit": "% Control"}, {"measurement": "% Control value of the absorbance at 450 nm (WST-8 measurement)", "setting": "[3]; [10]", "result": 94, "unit": "% Control"}, {"measurement": "% Control value of the RLU value (ATP measurement)", "setting": "[3]; [11]", "result": 99, "unit": "% Control"}, {"measurement": "% Control value of the absorbance at 450 nm (WST-8 measurement)", "setting": "[3]; [11]", "result": 101, "unit": "% Control"}, {"measurement": "% Control value of the RLU value (ATP measurement)", "setting": "[3]; [12]", "result": 48, "unit": "% Control"}, {"measurement": "% Control value of the absorbance at 450 nm (WST-8 measurement)", "setting": "[3]; [12]", "result": 37, "unit": "% Control"}, {"measurement": "% Control value of the RLU value (ATP measurement)", "setting": "[3]; [13]", "result": 89, "unit": "% Control"}, {"measurement": "% Control value of the absorbance at 450 nm (WST-8 measurement)", "setting": "[3]; [13]", "result": 83, "unit": "% Control"}, {"measurement": "% Control value of the RLU value (ATP measurement)", "setting": "[3]; [14]", "result": 29, "unit": "% Control"}, {"measurement": "% Control value of the absorbance at 450 nm (WST-8 measurement)", "setting": "[3]; [14]", "result": 12, "unit": "% Control"}, {"measurement": "% Control value of the RLU value (ATP measurement)", "setting": "[3]; [15]", "result": 86, "unit": "% Control"}, {"measurement": "% Control value of the absorbance at 450 nm (WST-8 measurement)", "setting": "[3]; [15]", "result": 71, "unit": "% Control"}]}
